“Also recorded” adds a separate entry of the source. Read-outs that look alike come from different tables or passages of the source.
Molecular target: GABARAPL2 (Homo sapiens, UniProt P60520)
Details: for CSP: GABARAPL2:ligand molar ratio 1:2; for 3D Mapping code: molar ratio 1:2

Chain of GABARAPL2 (P60520 whole entry): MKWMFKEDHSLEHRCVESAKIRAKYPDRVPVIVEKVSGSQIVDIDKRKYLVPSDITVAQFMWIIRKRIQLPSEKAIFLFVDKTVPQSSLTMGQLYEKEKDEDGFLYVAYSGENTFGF

Structure (SMILES): O=C1Nc2ccc(I)cc2C1=Cc1cc(Br)c(O)c(Br)c1 [compound 4]
- interaction in 2D NMR titration (GABARAPL2, listed as 10O5): only 10O5 (4) was able to interact with GABARAPL2; also recorded: prominent CSP
- CSP induced, K48 HN resonance (Molar ratio 10O5:GABARAPL2 0.5): 0.08111
- CSP induced, L50 HN resonance (Molar ratio 10O5:GABARAPL2 0.5): 0.0416
- CSP induced, R28 HN resonance (Molar ratio 10O5:GABARAPL2 0.5): 0.0281
- CSP induced, V16 HN resonance (Molar ratio 10O5:GABARAPL2 0.5): 0.00761
- CSP induced, V31 HN resonance (Molar ratio 10O5:GABARAPL2 0.5): 0.04746
- CSP induced, Y109 HN resonance (Molar ratio 10O5:GABARAPL2 0.5): 0.01545
- CSP induced, K48 HN resonance (Molar ratio 10O5:GABARAPL2 1): 0.1338
- CSP induced, L50 HN resonance (Molar ratio 10O5:GABARAPL2 1): 0.06831
- CSP induced, R28 HN resonance (Molar ratio 10O5:GABARAPL2 1): 0.04204
- CSP induced, V16 HN resonance (Molar ratio 10O5:GABARAPL2 1): 0.03636
- CSP induced, V31 HN resonance (Molar ratio 10O5:GABARAPL2 1): 0.08123
- CSP induced, Y109 HN resonance (Molar ratio 10O5:GABARAPL2 1): 0.03416
- CSP induced, K48 HN resonance (Molar ratio 10O5:GABARAPL2 2): 0.1662
- CSP induced, L50 HN resonance (Molar ratio 10O5:GABARAPL2 2): 0.09155
- CSP induced, R28 HN resonance (Molar ratio 10O5:GABARAPL2 2): 0.06538
- CSP induced, V16 HN resonance (Molar ratio 10O5:GABARAPL2 2): 0.05012
- CSP induced, V31 HN resonance (Molar ratio 10O5:GABARAPL2 2): 0.1265
- CSP induced, Y109 HN resonance (Molar ratio 10O5:GABARAPL2 2): 0.04477
- CSP induced, K48 HN resonance (Molar ratio 10O5:GABARAPL2 4): 0.2294
- CSP induced, L50 HN resonance (Molar ratio 10O5:GABARAPL2 4): 0.1327
- CSP induced, R28 HN resonance (Molar ratio 10O5:GABARAPL2 4): 0.07911
- CSP induced, V16 HN resonance (Molar ratio 10O5:GABARAPL2 4): 0.07334
- CSP induced, V31 HN resonance (Molar ratio 10O5:GABARAPL2 4): 0.1464
- CSP induced, Y109 HN resonance (Molar ratio 10O5:GABARAPL2 4): 0.06741
- CSP (residue A19): 0.086 ppm
- 3D Mapping code (residue A19): Orange
- CSP (residue A23): 0.058 ppm
- 3D Mapping code (residue A23): Orange
- CSP (residue A58): 0.016 ppm
- CSP (residue A75): 0.00255 ppm
- CSP (residue A108): 0.017 ppm
- CSP (residue C15): 0.019 ppm
- CSP (residue D8): 0.007 ppm
- CSP (residue D27): 0.029 ppm
- 3D Mapping code (residue D27): Light green
- CSP (residue D43): 0.009 ppm
- CSP (residue D45): 0.030 ppm
- 3D Mapping code (residue D45): Light green
- CSP (residue D54): 0.029 ppm
- 3D Mapping code (residue D54): Light green
- CSP (residue D81): 0.022 ppm
- CSP (residue D100): 0.018 ppm
- CSP (residue D102): 0.033 ppm
- 3D Mapping code (residue D102): Light green
- CSP (residue E7): 0.029 ppm
- 3D Mapping code (residue E7): Light green
- CSP (residue E12): 0.015 ppm
- CSP (residue E17): 0.081 ppm
- 3D Mapping code (residue E17): Orange
- CSP (residue E34): 0.060 ppm
- 3D Mapping code (residue E34): Orange
- CSP (residue E73): 0.00458 ppm
- CSP (residue E96): 0.019 ppm
- CSP (residue E98): 0.025 ppm
- CSP (residue E101): 0.007 ppm
- CSP (residue E112): 0.00563 ppm
- CSP (residue F60): 0.00542 ppm
- CSP (residue F77): 0.006 ppm
- CSP (residue F79): 0.007 ppm
- CSP (residue F104): 0.059 ppm
- 3D Mapping code (residue F104): Orange
- CSP (residue F115): 0.012 ppm
- CSP (residue G38): 0.040 ppm
- 3D Mapping code (residue G38): Light green
- CSP (residue G103): 0.019 ppm
- CSP (residue G111): 0.010 ppm
- CSP (residue G116): 0.007 ppm
- CSP (residue H9): 0.008 ppm
- CSP (residue H13): 0.031 ppm
- 3D Mapping code (residue H13): Light green
- CSP (residue I21): 0.054 ppm
- 3D Mapping code (residue I21): Orange
- CSP (residue I32): 0.057 ppm
- 3D Mapping code (residue I32): Blue
- CSP (residue I41): 0.00428 ppm
- CSP (residue I44): 0.029 ppm
- 3D Mapping code (residue I44): Light green
- CSP (residue I55): 0.026 ppm
- 3D Mapping code (residue I55): Light green
- CSP (residue I63): 0.014 ppm
- CSP (residue I64): 0.021 ppm
- CSP (residue I68): 0.021 ppm
- CSP (residue I76): 0.004 ppm
- CSP (residue K2): 0.017 ppm
- CSP (residue K6): 0.023 ppm
- CSP (residue K20): 0.058 ppm
- 3D Mapping code (residue K20): Orange
- CSP (residue K24): 0.015 ppm
- CSP (residue K35): 0.014 ppm
- CSP (residue K46, estimated): 0.050 ppm
- 3D Mapping code (residue K46): Blue
- CSP (residue K48): 0.168 ppm
- 3D Mapping code (residue K48): Blue
- CSP (residue K66): 0.020 ppm
- CSP (residue K74): 0.011 ppm
- CSP (residue K97): 0.012 ppm
- CSP (residue K99): 0.018 ppm
- CSP (residue L11): 0.016 ppm
- CSP (residue L50): 0.096 ppm
- 3D Mapping code (residue L50): Blue
- CSP (residue L70): 0.006 ppm
- CSP (residue L78): 0.006 ppm
- CSP (residue L105): 0.060 ppm
- 3D Mapping code (residue L105): Orange
- CSP (residue M1): 0.010 ppm
- CSP (residue M61): 0.015 ppm
- CSP (residue N113): 0.00264 ppm
- CSP (residue P26, estimated): 0.050 ppm
- 3D Mapping code (residue P26): Light green
- CSP (residue P30, estimated): 0.110 ppm
- 3D Mapping code (residue P30): Blue
- CSP (residue P52, estimated): 0.070 ppm
- 3D Mapping code (residue P52): Blue
- CSP (residue P71, estimated): 0.010 ppm
- CSP (residue Q40): 0.017 ppm
- CSP (residue Q59): 0.016 ppm
- CSP (residue Q69): 0.020 ppm
- CSP (residue R14): 0.091 ppm
- 3D Mapping code (residue R14): Orange
- CSP (residue R22): 0.083 ppm
- 3D Mapping code (residue R22): Orange
- CSP (residue R28): 0.064 ppm
- 3D Mapping code (residue R28): Orange
- CSP (residue R47, estimated): 0.100 ppm
- 3D Mapping code (residue R47): Blue
- CSP (residue R65): 0.008 ppm
- CSP (residue R67): 0.00158 ppm
- CSP (residue S10): 0.019 ppm
- CSP (residue S18): 0.021 ppm
- CSP (residue S37): 0.030 ppm
- 3D Mapping code (residue S37): Light green
- CSP (residue S39): 0.017 ppm
- CSP (residue S53): 0.076 ppm
- 3D Mapping code (residue S53): Orange
- CSP (residue S72): 0.004 ppm
- CSP (residue S110): 0.010 ppm
- CSP (residue T56): 0.008 ppm
- CSP (residue T114): 0.00144 ppm
- CSP (residue V16): 0.051 ppm
- 3D Mapping code (residue V16): Light green
- CSP (residue V29): 0.102 ppm
- 3D Mapping code (residue V29): Blue
- CSP (residue V31): 0.128 ppm
- 3D Mapping code (residue V31): Blue
- CSP (residue V33): 0.064 ppm
- 3D Mapping code (residue V33): Orange
- CSP (residue V36): 0.024 ppm
- CSP (residue V42): 0.00232 ppm
- CSP (residue V51): 0.077 ppm
- 3D Mapping code (residue V51): Blue
- CSP (residue V57): 0.024 ppm
- CSP (residue V80): 0.028 ppm
- 3D Mapping code (residue V80): Light green
- CSP (residue V107): 0.039 ppm
- 3D Mapping code (residue V107): Light green
- CSP (residue W3): 0.022 ppm
- CSP (residue W62): 0.016 ppm
- CSP (residue Y25): 0.085 ppm
- 3D Mapping code (residue Y25): Orange
- CSP (residue Y49): 0.148 ppm
- 3D Mapping code (residue Y49): Blue
- CSP (residue Y106): 0.097 ppm
- 3D Mapping code (residue Y106): Orange
- CSP (residue Y109): 0.012 ppm
